Assay results: article PMC9322406, “Broad‐range metalloprotease profiling in plants uncovers immunity provided by defence‐related metalloenzyme” (The New Phytologist, 2022)

Key:
Assay in all cases: competition with DK-01 photoaffinity labelling, in-gel fluorescence
Type in all cases: biochemical
Details in all cases: 200 uM inhibitor preincubated, 10 uM DK-01; leaf extract; band assigned by knockout
APM1 = target: T1, APM1 (Arabidopsis thaliana, UniProt Q8VZH2)
T1 construct: assigned by mutant lines
T1 sequence (Q8VZH2 1-879): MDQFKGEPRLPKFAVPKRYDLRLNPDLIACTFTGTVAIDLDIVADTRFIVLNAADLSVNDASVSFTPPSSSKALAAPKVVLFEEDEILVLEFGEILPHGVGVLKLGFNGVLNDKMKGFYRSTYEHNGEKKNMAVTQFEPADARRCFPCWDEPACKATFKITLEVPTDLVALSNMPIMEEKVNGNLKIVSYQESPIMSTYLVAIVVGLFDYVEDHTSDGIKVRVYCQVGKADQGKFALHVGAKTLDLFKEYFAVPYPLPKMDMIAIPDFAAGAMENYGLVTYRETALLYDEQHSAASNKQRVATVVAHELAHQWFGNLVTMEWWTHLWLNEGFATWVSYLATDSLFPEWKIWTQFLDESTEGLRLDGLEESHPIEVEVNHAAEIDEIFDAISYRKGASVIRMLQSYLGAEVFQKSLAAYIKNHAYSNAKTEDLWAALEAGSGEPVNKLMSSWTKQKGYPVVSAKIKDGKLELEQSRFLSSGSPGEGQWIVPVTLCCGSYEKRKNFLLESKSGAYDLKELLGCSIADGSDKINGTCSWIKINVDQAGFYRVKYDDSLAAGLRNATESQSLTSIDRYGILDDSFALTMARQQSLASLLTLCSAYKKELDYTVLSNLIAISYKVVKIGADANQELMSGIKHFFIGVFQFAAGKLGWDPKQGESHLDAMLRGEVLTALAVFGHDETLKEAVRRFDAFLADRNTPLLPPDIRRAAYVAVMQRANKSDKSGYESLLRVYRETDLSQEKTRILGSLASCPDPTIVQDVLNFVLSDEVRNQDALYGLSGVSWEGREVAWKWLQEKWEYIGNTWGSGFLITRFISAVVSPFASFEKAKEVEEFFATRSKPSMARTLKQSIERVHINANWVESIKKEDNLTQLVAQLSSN

TOP1 = target: T2, TOP1 (Arabidopsis thaliana, UniProt Q94AM1)
T2 construct: gene OOP; assigned by knockout lines
T2 sequence (Q94AM1 83-791): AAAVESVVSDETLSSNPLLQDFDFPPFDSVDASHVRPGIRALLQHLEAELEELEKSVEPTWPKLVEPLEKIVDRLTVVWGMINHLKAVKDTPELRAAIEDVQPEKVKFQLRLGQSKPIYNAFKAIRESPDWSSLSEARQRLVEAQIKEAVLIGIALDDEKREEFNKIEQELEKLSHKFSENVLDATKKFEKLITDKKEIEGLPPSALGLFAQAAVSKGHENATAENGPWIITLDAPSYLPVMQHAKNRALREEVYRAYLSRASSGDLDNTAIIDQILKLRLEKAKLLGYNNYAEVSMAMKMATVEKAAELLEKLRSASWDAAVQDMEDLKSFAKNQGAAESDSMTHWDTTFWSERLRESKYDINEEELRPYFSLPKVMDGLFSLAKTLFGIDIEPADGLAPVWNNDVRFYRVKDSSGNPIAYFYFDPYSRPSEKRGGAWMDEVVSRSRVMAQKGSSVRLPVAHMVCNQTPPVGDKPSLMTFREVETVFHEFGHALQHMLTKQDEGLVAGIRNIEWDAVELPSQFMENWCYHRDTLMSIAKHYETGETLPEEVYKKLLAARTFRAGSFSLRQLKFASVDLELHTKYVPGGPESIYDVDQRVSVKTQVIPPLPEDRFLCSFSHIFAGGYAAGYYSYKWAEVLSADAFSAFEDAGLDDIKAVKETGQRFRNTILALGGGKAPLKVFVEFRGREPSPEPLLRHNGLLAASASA

PREP1 = target: T3, PREP1 (Arabidopsis thaliana, UniProt Q9LJL3)
T3 construct: assigned by knockout lines; locus printed At3g18170, probably a misprint for At3g19170
T3 sequence (Q9LJL3 86-1080): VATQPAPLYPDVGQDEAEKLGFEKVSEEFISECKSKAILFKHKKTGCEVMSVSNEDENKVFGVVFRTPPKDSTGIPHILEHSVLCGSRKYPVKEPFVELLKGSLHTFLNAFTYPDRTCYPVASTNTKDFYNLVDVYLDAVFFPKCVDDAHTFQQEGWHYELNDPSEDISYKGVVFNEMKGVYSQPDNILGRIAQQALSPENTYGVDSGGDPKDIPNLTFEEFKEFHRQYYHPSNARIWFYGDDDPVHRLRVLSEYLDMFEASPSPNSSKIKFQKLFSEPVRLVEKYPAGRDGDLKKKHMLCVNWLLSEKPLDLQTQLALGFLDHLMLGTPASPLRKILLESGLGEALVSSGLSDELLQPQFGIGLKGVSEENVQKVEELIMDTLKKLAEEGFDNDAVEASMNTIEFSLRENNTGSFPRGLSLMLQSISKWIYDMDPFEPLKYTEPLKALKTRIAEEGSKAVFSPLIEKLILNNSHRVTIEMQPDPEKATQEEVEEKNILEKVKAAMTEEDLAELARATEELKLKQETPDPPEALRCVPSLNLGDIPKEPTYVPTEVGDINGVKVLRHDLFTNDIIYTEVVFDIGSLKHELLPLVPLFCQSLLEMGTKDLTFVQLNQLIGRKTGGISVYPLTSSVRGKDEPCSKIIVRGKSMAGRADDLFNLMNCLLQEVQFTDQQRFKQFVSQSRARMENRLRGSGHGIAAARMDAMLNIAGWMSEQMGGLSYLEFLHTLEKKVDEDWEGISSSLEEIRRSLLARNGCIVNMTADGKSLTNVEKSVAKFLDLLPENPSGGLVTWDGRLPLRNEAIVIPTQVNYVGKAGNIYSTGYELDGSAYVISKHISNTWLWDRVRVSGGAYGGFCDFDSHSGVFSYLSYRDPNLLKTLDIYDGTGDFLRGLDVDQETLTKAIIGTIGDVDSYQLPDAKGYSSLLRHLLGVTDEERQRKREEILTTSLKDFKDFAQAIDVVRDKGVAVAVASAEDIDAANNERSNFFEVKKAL

competition with DK-01 photoaffinity labelling, in-gel fluorescence (PREP1)	SMILES	competition with DK-01 photoaffinity labelling, in-gel fluorescence (APM1)	competition with DK-01 photoaffinity labelling, in-gel fluorescence (TOP1)
PREP1 is actinonin/ilomastat‐sensitive	CCCCC[C@H](CC(=O)NO)C(=O)N[C@H](C(=O)N1CCC[C@H]1CO)C(C)C [actinonin]	APM1 is marimastat/actinonin‐sensitive and active at pH5 and above	TOP1 labelling is actinonin‐sensitive and requires a neutral pH
PREP1 is actinonin/ilomastat‐sensitive	CNC(=O)[C@H](Cc1c[nH]c2ccccc12)NC(=O)[C@@H](CC(=O)NO)CC(C)C [ilomastat]		
	CNC(=O)[C@@H](NC(=O)[C@H](CC(C)C)[C@H](O)C(=O)NO)C(C)(C)C [marimastat]	APM1 is marimastat/actinonin‐sensitive and active at pH5 and above	
